One data set deals with hRSV (strain A2). Kind of data set: Plaque inhibition assay, hRSV. It counts as cell-based, human respiratory syncytial virus. The settings on record: for Plaque size relative to DMSO control: hRSV plaque assay; for IC50: human respiratory syncytial virus, read-out: IC50 (plaque number vs DMSO control). On the procedure:
Example: Plaque inhibition assay
(§1) An identical assay procedure was carried out for hRSV (strain A2) bovine RS (strain Snook) and PVM (strain 15). Virus stocks were diluted 10 fold in GMEM (Invitrogen) so that the wells containing cells received sufficient virus to generate approximately 2000, 200 and 20 plaques per well.
The overlay medium also contained the compound to be tested at appropriate concentrations. Typically the 6 concentrations of the test compounds used were: 100 μM, 31.6 μM, 10 μM, 3.16 μM, 1 μM and 0.316 μM.
Stocks of the test compounds were prepared in DMSO (Sigma) (carrier). Each stock compound was diluted 1 in 200 in overlay medium to give dilutions stated above.
(§2) Cells of a standard cell line known to support pneumovirus replication (typically HEp2 or BSC1 cells) were grown in standard 12 well plates at 37° C. in an atmosphere of 5% (v/v) CO2 until confluent. Medium was aspirated from the cells and replaced with 200 μl aliquots of virus. Aliquots were prepared by diluting virus stocks 10-fold in GMEM (Invitrogen) as described above with no FCS. A mock (no virus) was also set up to test cell viability. The virus was incubated with the cells for 1 hour at 33° C. with gentle rocking every 5-10 minutes. The inocula were removed and 2 ml of overlay medium was added. Overlay medium was either test (plus compound) or control (medium alone or medium containing DMSO). The plates were incubated at 33° C. for 4-8 days to allow plaques to develop as indicated. A volume of 1 ml of additional overlay medium (containing the test compound as appropriate) was added every 3 days. All virus dilutions were carried out with each concentration of test compound, or treated as controls, and each was carried out in triplicate.
(§3) Following incubation, cells were fixed by addition of an equal volume of 4% (v/v) glutaraldehyde (Sigma) in PBS with further incubation for a minimum of 2 hours. The fixing solution was washed off under a slow flowing stream of water and 1 ml of crystal violet (0.075% w/v: Sigma) was added and left for 20 minutes at room temperature. The crystal violet was removed and the fixed cell monolayers washed. Plates were air dried. Plaques counts were recorded from wells with >20 and <200 in number. These numbers provide the most robust statistical reliability for viable plaque counts.
This experimental approach screens the ability of compounds to block the formation of plaques.

The next data set concerns Bovine RSV. Kind of data set: Plaque inhibition assay, bovine RSV. The format is cell-based, bovine respiratory syncytial virus. The settings on record: for IC50: bovine RSV, 6-day assay, HEp2 cells; for Plaque size: bRSV plaque assay. On the procedure:
as §1, §2, §3
(§4) Compounds 1, 4 and 6 were also tested against bovine RSV and pneumonia virus of mice (PVM).
The compounds were tested with a 6-day assay using HEp2 cells.

Data set [1] in a line: Solubility in cell medium. It counts as physicochemical. The note with it: for Solubility in cell medium: solution of ligand in DMSO (20 mM) diluted in cell media to 100 μM, scale from 'very poor' (almost insoluble) to 'very good' (freely soluble over extended periods at 4° C.); for Solubility behaviour in cell medium: at 100 μM.
Data set [2] has as its system HEp2 cells. Description: MTT toxicity assay. The settings on record: for Appearance of cell monolayers: compared with carrier controls. It counts as cell-based. On the procedure:
All experiments shown were carried out in HEp2 cells. Cells were grown in 96 well plates overnight as previously described in 10% FCS medium to 95% confluence level. The medium was aspirated off and replaced with 200ul media with 2% FCS +/− compounds in DMSO carrier as indicated at an identical dilution series to that used in the plaque assays. 8 wells were used per compound/carrier alone dilution. An additional 2 rows of 8 cells were grown in medium alone for reference and subsequently 8 would be used as a cell death control as described below. Cells were incubated at 33° C. as indicated. If the incubation period exceeded 4 days the medium was replaced with the appropriate amount of fresh medium plus compound.
MTT assays were commenced 4 hours before the time period expired. Here 20 uL of MTT [(3-{4,5-dimethylthiazol-2-yl}-2,5-diphenyltetrazolium bromide)] solution (7.5 mg/ml in
PBS) was added. […] The cells were placed back in the incubator at 33° C. After 4 hours, 100 μL of a stop solution (50% formamide, 20% w/v SDS) was added and pipetted to dissolve the substrate. Plates were then left overnight to allow the bubbles to disappear and the OD was recorded at 595 nm. Following subtraction of background solution colour (cell death control), the optical density was expressed as a percentage compared to the DMSO control on each appropriate plate.
In general terms: Formazan colour is commonly taken as a measure of viable cells.

The subject of the next data set is HEp2 or BSC1 cells. Kind of data set: Toxicity to cells in the TCID50 screen (mock control). The format is cell-based. The note with it: cellular RSV TCID50 assay tables. On the procedure:
This method provides a rapid approach to initially screen compounds and was developed as an increased number of compounds were synthesised. […] Virus was then added over 5 different half log dilutions starting at a multiplicity of infection of 0.02 plus mock control. Three dilutions of compound plus a DMSO control were screened per plate. […] Identical plate repeats for each compound dilution were fixed in subsequent days as indicated.

The test system of a further data set is PVM (strain 15). Kind of data set: Plaque inhibition assay, PVM. It counts as cell-based, pneumonia virus of mice. The settings on record: for Plaque size: PVM plaque assay; for IC50: murine pneumonia virus, PVM, HEp2 cells. On the procedure: as §1, §2, §3, §4
A full plaque assay was carried out for compound 4 using HEp2 cells, with assays of 5 days and 6 days after incubation.

In data set [3] the test system is HEp2 cells. Description: Toxicity observed in plaque assay, HEp2 cells. It counts as cell-based. On the procedure: as §2
The next data set deals with BSC1 cells. Description: Toxicity observed in plaque assay, BSC1 cells. The format is cell-based. The settings on record: at 100 μM. On the procedure:
as §2

The subject of the next data set is RSV. Description: 96 well plate TCID50 (cellular RSV TCID50 assay). It counts as cell-based. The note with it: for Activity: summary of activities in cellular RSV TCID50 assay, symbols − to +++++ not defined. On the procedure: This method provides a rapid approach to initially screen compounds and was developed as an increased number of compounds were synthesised. Cells of a standard cell line known to support pneumovirus replication (typically HEp2 or BSC1 cells) were grown to 95% confluence in a 96 well plate. Virus was then added over 5 different half log dilutions starting at a multiplicity of infection of 0.02 plus mock control. Three dilutions of compound plus a DMSO control were screened per plate. […] Identical plate repeats for each compound dilution were fixed in subsequent days as indicated.
Stained plates were read at 595 nm, higher optical density (OD) readings indicate more viable cells remain.

The mark [4] stands for this setting: HEp-2, 120 h, hRSV, HEp2 cells, Day 5.
[5] abbreviates: Bovine orthopneumovirus, HEp-2, 144 h, read-out: IC50.

Values after ≈ are worked out from the molar mass of the structure shown. Where two headings read alike, the source gives them in different places.

A word on the IC50: it is the concentration that inhibits the measured activity by half. A word on the melting point: it is the temperature of the solid-liquid transition.

Turning to `Cc1ccccc1NC(=O)Nc1ccc(C#N)cc1` [Compound 6, 1-(4-cyanophenyl)-3-(2-methylphenyl)urea], the “Plaque size relative to DMSO control” value in the data set with hRSV (strain A2) is “significantly reduce the size of plaques”. Further, the “IC50 (plaque number vs DMSO control)” value was 50% reduction was not reached in the data set with hRSV (strain A2) (hRSV, HEp2 cells, Day 6) and 50% reduction was not reached in the data set with hRSV (strain A2) (hRSV, HEp2 cells, Day 7). The IC50 turned out to be 10 µM in the data set with hRSV (strain A2) (setting [4]) and 15 µM in the data set on Bovine RSV (setting [5]). The Plaque size entry in the data set with Bovine RSV and with PVM (strain 15) was “significantly reduce the size of plaques” in each case. Further, the “Solubility in cell medium” value in data set [1] is listed as “good”. Besides, in the data set on HEp2 cells [2], the “Appearance of cell monolayers” value is “appeared intact”. In the data set on HEp2 or BSC1 cells, the Toxicity result is on record as “low”.

`CSc1cccc(NC(=O)Nc2ccccc2C)c1` [Compound 4, 1-(2-methylphenyl)-3-[3-(methylsulfanyl)phenyl]urea]: the figures for the “Toxicity in plaque assay” value in the data set on HEp2 cells [3] (at 10 μM), in the data set on HEp2 cells [3] (at 31.6 μM) and in the data set with HEp2 cells [3] (at 100 μM) were “No obvious toxicity”, “to some degree” and “showed toxicity”, respectively. Also, the “Plaque size relative to DMSO control” value in the data set on hRSV (strain A2) is “significantly reduce the size of plaques”. In addition, the IC50 in the data set on hRSV (strain A2) (setting [4]) amounted to 4.1 µM; with hRSV (strain A2) (HEp-2, 144 h, hRSV, HEp2 cells, Day 6), 8.5 µM; with hRSV (strain A2) (HEp-2, 168 h, hRSV, HEp2 cells, Day 7) it was 15 µM; in the data set on Bovine RSV (setting [5]), 80 µM; in the data set on PVM (strain 15) (HEp-2, 120 h, day 5) it was 32 µM; with PVM (strain 15) (HEp-2, 144 h, day 6) it was 100 µM. In addition, the Plaque size entry with Bovine RSV and with PVM (strain 15) was “significantly reduce the size of plaques” in each case. In data set [1], the “Solubility in cell medium” value is recorded as “good”. For the same compound, in the data set with HEp2 cells [2], the “Appearance of cell monolayers” value was “appeared intact”. In addition, in the data set on HEp2 or BSC1 cells, the Toxicity entry is reported as “some toxicity at 100 μM”.

`CSc1ccc(NC(=O)NCCCOCCOCCOCCCNC(=O)Nc2ccc(SC)cc2)cc1` [Compound 37, 1-[4-(methylsulfanyl)phenyl]-3-[3-(2-{2-[3-({[4-(methylsulfanyl)-phenyl]carbamoyl}amino)propoxy]ethoxy}ethoxy)propyl]urea]: in the data set with HEp2 cells [3] (at 100 μM), the “Toxicity in plaque assay” value is reported as “showed toxicity”. The IC50 in the data set on hRSV (strain A2) (setting [4]) was 17.5 µM. In addition, in data set [1], the “Solubility behaviour in cell medium” value was “some signs of precipitating out of solution” and the “Solubility in cell medium” value is listed as “good”. Further, the “Appearance of cell monolayers” value with HEp2 cells [2] is given as “appeared intact”. Moreover, the Toxicity result in the data set with HEp2 or BSC1 cells is on record as “toxic at 50 μM”.

For `Cc1ccccc1NC(=O)Nc1cccc(C(F)(F)F)c1` [Compound 40, 1-(o-tolyl)-3-(3-(trifluoromethyl)phenyl)urea], in the data set with hRSV (strain A2) (hRSV, BSC1 cells, 4 day assay), the “Inhibition of plaque formation” value is reported as “moderate inhibition”. In [1], the “Solubility in cell medium” value is recorded as “Good”. Moreover, in the data set with HEp2 or BSC1 cells, the Toxicity entry was “Low”. In addition, the “Toxicity in plaque assay” value with BSC1 cells is given as “low toxicity”.

The compound `CSc1cccc(NC(=O)NCCCOCCOCCOCCCNC(=O)Nc2cccc(SC)c2)c1` [Compound 36, 1-[3-(methylsulfanyl)phenyl]-3-[3-(2-{2-[3-({[3-(methylsulfanyl)-phenyl]carbamoyl}amino)propoxy]ethoxy}ethoxy)propyl]urea] gave a melting point of 106 to 108 °C. Besides, the “Solubility in cell medium” value in [1] is given as “good”.

Regarding `Cc1ccccc1NC(=O)Nc1ccc(OC(F)(F)F)cc1` [Compound 43, 1-(o-tolyl)-3-(4-(trifluoromethoxy)phenyl)urea], the “Solubility in cell medium” value in data set [1] was “Good”. Further, in the data set with HEp2 or BSC1 cells, the Toxicity entry is on record as “Toxic at 100 μM”. The Activity entry in the data set on RSV is reported as “Plaques reduced”.

Take `Cc1ccccc1NC(=O)Nc1ccc(I)cc1` [Compound 44, 1-(4-iodophenyl)-3-(o-tolyl)urea]: in data set [1], the “Solubility in cell medium” value is “Moderate at 100 μM”. The Toxicity result in the data set with HEp2 or BSC1 cells is “Low”. Moreover, the outcome with RSV was Inactive.

Turning to `Cc1ccccc1NC(=O)Nc1ccc(SC(F)(F)F)cc1` [Compound 42, 1-(o-tolyl)-3-(4-((trifluoromethyl)thio)phenyl)urea], the “Solubility in cell medium” value in [1] is listed as “Good”. Also, the Toxicity entry in the data set with HEp2 or BSC1 cells is reported as “Very toxic at 100 μM”. In addition, the Activity entry in the data set on RSV is reported as “Plaques reduced”.

Consider `Cc1ccccc1NC(=O)Nc1cccc([N+](=O)[O-])c1` [Compound 1, 3-(2-methylphenyl)-1-(3-nitrophenyl)urea], for which the “Plaque size relative to DMSO control” value in the data set with hRSV (strain A2) is “significantly reduce the size of plaques”; in the data set on hRSV (strain A2) (listed as compound 1), “smaller than in the DMSO control”. Also, the Plaque size entry in the data set with Bovine RSV and in the data set with PVM (strain 15) was “significantly reduce the size of plaques” in each case. Besides, the IC50 entry with Bovine RSV was “precipitated out before 50% reduction was seen”. The “Solubility behaviour in cell medium” value in data set [1] was “appearance of insolublity”. Further, in data set [1] (cell medium, aqueous buffer, kinetic from dmso stock, read-out: Upper limit of soluble concentration), the solubility was in the range of 5 to 10 µM (≈ 1.36 to 2.71 µg/mL). Besides, the “Solubility in cell medium” value in data set [1] is reported as “poor”. Also, the “Sensitivity in MTT assay” value in the data set on HEp2 cells [2] (days 3 and 4, disappeared after 5 days) is recorded as “increased sensitivity”. The “Concentration above which inhibition of activity is seen (MTT)” value in the data set with HEp2 cells [2] (over the time course) was “above 10 μM”. Moreover, the Toxicity entry in the data set on HEp2 or BSC1 cells is recorded as “toxic at 32 μM”. Further, the “Activity in the TCID50 assay at higher concentration” value with RSV (at >10 μM) was “no increase in activity”.

Regarding `Cc1ccccc1NC(=O)Nc1cccc(Cl)c1` [Compound 39, 1-(3-chlorophenyl)-3-(o-tolyl)urea], the “Plaque size relative to DMSO control” value with hRSV (strain A2) is “reduction in plaque numbers (as shown) and size”. Moreover, the IC50 with hRSV (strain A2) (BSC-1, 96 h, hRSV, BSC1 cells, 4 day assay) came to 16.5 µM. Further, in data set [1], the “Solubility behaviour in cell medium” value is “moderately soluble” and the “Solubility in cell medium” value is “Moderate at 100 μM”. Also, the Toxicity entry in the data set on HEp2 or BSC1 cells is reported as “Some toxicity at 100 μM”. Besides, in the data set with BSC1 cells, the “Toxicity in plaque assay” value is “some toxicity”.
